Measured values as given in patent US20220256852A1, “NOVEL CRYSTALLINE FORM OF PYROXASULFONE, METHODS FOR ITS PREPARATION AND USE OF THE SAME” (ROTAM AGROCHEM INTERNATIONAL COMPANY LIMITED, priority 2021, published 2022).

Legend:
[1] = type: physicochemical
Experimental: Samples (S1, S2 and S3) were stored at 54° C. for 1 month, 3 months and 6 months. The procedures were followed according to CIPAC MT 46.3. The concentration of Pyroxasulfone was measured at the end of each storage time by HPLC. The aggregation was measured by observation. The original concentration of Pyroxasulfone in each formulation was 40%.

[2] = Dispersibility test of water dispersible granules (WG); type: physicochemical; settings: summary of Table 4
Experimental: 0.3077 g of calcium carbonate and 0.092 g of magnesium oxide were dissolved in a small amount of diluted hydrochloric acid, then heated and boiled on a sand bath to remove hydrochloric acid. Distilled water was added to the remaining solution to make 10 liters in total. Subsequently, 100 ml of the obtained solution was put into a 100 ml stoppered measuring cylinder, and kept at 20° C. in a temperature-controlled room. 100 mg samples of S4 to S6 were put into the measuring cylinder, and left to stand for 30 seconds. The measuring cylinder was then turned upside down repeatedly at a rate of once a second, whereupon the turning-down frequency (number of turns) needed for disintegrating the whole water-dispersible material was counted.

Cn1nc(C(F)(F)F)c(CS(=O)(=O)C2=NOC(C)(C)C2)c1OC(F)F [3-[[[5-(difluoromethoxy)-1-methyl-3-(trifluoromethyl)-1H-pyrazol-4-yl]methyl]sulfonyl]-4,5-dihydro-5,5-dimethylisoxazole]
storage stability compared with amorphous Pyroxasulfone [1]: significantly higher storage stability
tendency to aggregate during storage ([1]; summary of Table 5): significantly lower tendency to aggregate
dispersibility compared with amorphous Pyroxasulfone [2]: significantly higher dispersibility
